{
  "source": "the NIST ThermoML archive (doi:10.1021/je300217x)",
  "conditions": "Liquid, Closed cell (Static) method",
  "note": "Numbers after ± are expanded uncertainties.",
  "data": [
    {"smiles": "FC1(F)C(F)(F)C(F)(F)C1(F)F", "note": "[octafluorocyclobutane]", "values": [
      {"measurement": "vapor or sublimation pressure", "setting": "247.9 K", "value": "39 ± 3", "unit": "kPa"},
      {"measurement": "vapor or sublimation pressure", "setting": "248.25 K", "value": "41 ± 3", "unit": "kPa"},
      {"measurement": "vapor or sublimation pressure", "setting": "248.3 K", "value": "40 ± 3", "unit": "kPa"},
      {"measurement": "vapor or sublimation pressure", "setting": "253.38 K", "value": "51 ± 3", "unit": "kPa"},
      {"measurement": "vapor or sublimation pressure", "setting": "263 K", "value": "81 ± 3", "unit": "kPa"},
      {"measurement": "vapor or sublimation pressure", "setting": "265.93 K", "value": "92 ± 3", "unit": "kPa"},
      {"measurement": "vapor or sublimation pressure", "setting": "267.92 K", "value": "99 ± 3", "unit": "kPa"},
      {"measurement": "vapor or sublimation pressure", "setting": "269.89 K", "value": "110 ± 3", "unit": "kPa"},
      {"measurement": "vapor or sublimation pressure", "setting": "272.9 K", "value": "122 ± 3", "unit": "kPa"},
      {"measurement": "vapor or sublimation pressure", "setting": "277.87 K", "value": "148 ± 3", "unit": "kPa"},
      {"measurement": "vapor or sublimation pressure", "setting": "282.9 K", "value": "180 ± 3", "unit": "kPa"},
      {"measurement": "vapor or sublimation pressure", "setting": "287.89 K", "value": "216 ± 3", "unit": "kPa"},
      {"measurement": "vapor or sublimation pressure", "setting": "292.89 K", "value": "257 ± 4", "unit": "kPa"},
      {"measurement": "vapor or sublimation pressure", "setting": "303.37 K", "value": "362 ± 4", "unit": "kPa"},
      {"measurement": "vapor or sublimation pressure", "setting": "313.09 K", "value": "486 ± 4", "unit": "kPa"},
      {"measurement": "vapor or sublimation pressure", "setting": "322.53 K", "value": "635 ± 5", "unit": "kPa"},
      {"measurement": "vapor or sublimation pressure", "setting": "335.34 K", "value": "889 ± 5", "unit": "kPa"},
      {"measurement": "vapor or sublimation pressure", "setting": "342.37 K", "value": "1055 ± 6", "unit": "kPa"},
      {"measurement": "vapor or sublimation pressure", "setting": "352.36 K", "value": "1329 ± 7", "unit": "kPa"}
    ]},
    {"smiles": "FC(F)=C(F)F", "note": "[tetrafluoroethene]", "values": [
      {"measurement": "vapor or sublimation pressure", "setting": "248.2 K", "value": "864 ± 7", "unit": "kPa"},
      {"measurement": "vapor or sublimation pressure", "setting": "248.3 K", "value": "866 ± 8", "unit": "kPa"},
      {"measurement": "vapor or sublimation pressure", "setting": "253.34 K", "value": "1017 ± 8", "unit": "kPa"},
      {"measurement": "vapor or sublimation pressure", "setting": "263 K", "value": "1357 ± 10", "unit": "kPa"},
      {"measurement": "vapor or sublimation pressure", "setting": "263.18 K", "value": "1367 ± 9", "unit": "kPa"},
      {"measurement": "vapor or sublimation pressure", "setting": "273.14 K", "value": "1804 ± 11", "unit": "kPa"},
      {"measurement": "vapor or sublimation pressure", "setting": "282.9 K", "value": "2330 ± 12", "unit": "kPa"},
      {"measurement": "vapor or sublimation pressure", "setting": "283.19 K", "value": "2340 ± 12", "unit": "kPa"}
    ]}
  ]
}
